4 compounds from publication PMC8398766, “Do Small Molecules Activate the TrkB Receptor in the Same Manner as BDNF? Limitations of Published TrkB Low Molecular Agonists and Screening for Novel TrkB Orthosteric Agonists” (Pharmaceuticals, 2021) can be followed below.

Values after ≈ are worked out from the molar mass of the structure shown.

For data set [1], the target named is extracellular domain of the human TrkB receptor (exTrkB), residues 1-430 (human) (UniProt Q16620).
Data set [2] shares this target. Nature of the data set: MST; exTrkB labelled with RED-NHS, 20 nM; ligand titrated at 16 concentration points; MST buffer (50 mM Tris pH 8, 150 mM NaCl, 10 mM MgCl2, 0.1% Tween20); 5 min at 25 °C before loading; Kd binding model.
The target of the next data set is T1, exTrkB (Homo sapiens, UniProt Q16620).
T1 construct: human TrkB receptor (exTrkB), residues 1−430, was cloned into the pCMV2 expression vector; made in house; host or cells: ExpiCHO-S cells
Nature of the data set: MST binding affinity (Kd) determination. The protocol:
The gene encoding the extracellular domain of the human TrkB receptor (exTrkB), residues 1−430, was cloned into the pCMV2 expression vector. Protein expression was performed in suspension-cultivated mammalian ExpiCHO-S cells using the ExpiFectamine (Thermo Scientific, Thermo Fisher Scientific, Waltham, MA, USA) transfection reagent. The secreted protein was purified using a four-step protocol. Clarified culture medium was precipitated with ammonium sulfate added to a final concentration of 1.5 M and centrifuged (235,000× g, 60 min at 4 °C). The supernatant after centrifugation was applied on a HiTrap Phenyl column (GE Healthcare, Chicago, IL, USA) equilibrated with buffer A (25 mM Tris, 1 mM DTT; pH 7.5) with 1.5 M ammonium sulfate. Bound proteins were eluted with a linear gradient of buffer A. The eluted proteins were dialyzed overnight in buffer A and loaded on a CaptoQ ImpRes column (GE Healthcare) equilibrated with buffer A with 50 mM NaCl. The bound proteins were eluted with a linear gradient of buffer A with 1 M NaCl. The fractions containing exTrkB protein were pooled, and MnCl2 and CaCl2 (1mM final concentration each) were added. The sample was purified on a HiTrap Con A 4B column (GE Healthcare) equilibrated with buffer B (25 mM Tris, 0.5 M NaCl, 1 mM MnCl2, 1 mM CaCl2; pH 7.5) and eluted with buffer C (25 mM Tris, 0.1 M NaCl, 0.4 M α-D-glucopyranoside; pH 6.5). To improve the protein recovery, buffer C flow was paused nine times during elution. The eluted fractions were concentrated and purified by size-exclusion chromatography on a HiLoad 16/600 Superdex 200 column (GE Healthcare) in buffer A with 0.5 M NaCl. The protein samples were concentrated to 1 mg/mL, and buffer was exchanged (PBS; pH 7.4). Samples were frozen in liquid nitrogen and stored at −80 °C. The protein purity was estimated by SDS–PAGE followed by Coomassie Brilliant Blue staining. The protein concentration was determined from the absorption at 280 nm using an UV NanoDrop 1000 spectrophotometer (Thermo Scientific).
The exTrkB was labeled with a Monolith Protein Labeling Kit RED-NHS 2nd Generation (NanoTemper Technologies GmbH, Munich, Germany) according to the manufacturer’s protocol. The labelling efficiency was always determined spectrophotometrically with NanoPhotometer® NP80 (Impel) in line with the manufacturer’s recommendations. Labelled exTrkB protein was aliquoted and stored at −80 °C to avoid repeated freeze–thaw cycles. Before analysis, the exTrkB protein was thawed on ice and diluted with MST buffer (50 mM Tris pH = 8; 150 mM NaCl; 10 mM MgCl2; 0.1% Tween20) to the desired concentration.
For primary screening (single-point MST experiments for signal amplitude determination), each of the 987 screened compounds were diluted in MST buffer + 0.1% Tween20 to a final concentration of 0.5 mM. The tested compounds were mixed with exTrkB solution (the final concentration of exTrkB was 20 nM) and centrifuged (10,000× g, 4 min at 4 °C) to eliminate protein and compound aggregates. Before loading to capillaries (Monolith NT.115 Capillaries, NanoTemper Technologies GmbH), the samples were incubated for 5 min at 25 °C and then placed into the MST apparatus (Monolith, NanoTemper Technologies GmbH). The experiments were performed using nano-blue excitation, LED light adjusted to 20% excitation power, and MST power set to medium, and the fluorescence signal during thermophoresis was detected after 30 s. Single-point MST experiments were performed by the determination of the amplitude signal between the unbound and bound state between the molecule and exTrkB, which was analyzed using the MO.Control Software version 1.6 (NanoTemper Technologies GmbH). A reference sample containing only exTrkB and the equivalent DMSO concentration (v/v) was included in each individual MST experiment. At least three technical replicates were prepared for each of the tested compounds. A binding affinity study was performed for 113 of the selected compounds at 16 concentration points. […]

Another data set addresses T2, TrkB receptor (Rattus norvegicus, UniProt Q63604).
T2 construct: host or cells: SN56 T48 cell line
Nature of the data set: ELFI TrkB phosphorylation, orthosteric agonist mode, SN56 T48 cell line. Conditions: 0.125–100 μM, 15 min. It is filed as cell-based. Here is the method: The SN56 T48 cell line with stable overexpression of the TrkB receptor was purchased from Emory University (Atlanta, GA, USA) and cultivated according to the protocol described in Jang et al., 2010 [12]. The cell lines were cultivated with the following reagents: DMEM High Glucose, fetal bovine serum (FBS), Penicillin-Streptomycin Solution 100×, and Trypsin-EDTA 1×; all were purchased from Biowest, and G418 was from ThermoFisher Scientific. For the ELFI experiments, cells were seeded (8000/well) on a PDL-treated 96-well plate (BioCoat™, Corning Inc., Corning, NY, USA) and 6-well plate (400,000/well) for lysate collection and immunoblot analysis.
In the orthosteric agonist mode experiments, starved cells (5 h) were treated with compounds (0.125–100 μM; volume, 100 μL/well) or BDNF (0.01–10 nM; volume, 100 μL/well) dissolved in culture medium. In the allosteric modulation mode experiments, starved cells (5 h) were treated with final compound concentrations of 3, 10, and 30 μM; volume, 50 μL/well) in the presence of a rising concentration of BDNF (final concentration in well, 0.15–5 nM; volume, 50 μL/well). Corresponding treatment with DMSO (v/v) was performed for a control. Cells were treated for 15 min in both the orthosteric and allosteric modulation mode experiments.
The analysis of TrkB receptor activation was performed using the ELFI method adapted from Boltayev et al. (2017) with some modifications. After compound treatment, experiments were stopped by fixing cells with 10% buffered formalin (Kolchem, Lodz, Poland) for 20 min (volume, 100 μL/well). Afterwards, cells were permeabilized with washing buffer (TBS+ 0.1% Tween20) for 15 min, and endogenous peroxidases were quenched by 20 min of incubation with 1% H2O2 dissolved in TBS (each solution: volume, 100 μL/well). Epitopes were blocked with 10% BSA (Biowest) dissolved in washing buffer for 2 h (volume, 100 μL/well) and incubated with anti-pTrkB (Tyr707) primary antibody (Cell Signaling Technology, Danvers, MA, USA) diluted in washing buffer (1:500; overnight at 4 °C; volume, 100 μL/well). After repeated washing, cells were incubated with HRP-linked anti-rabbit antibody (Cell Signaling Technology) for 2 h (1:1000; RT; volume, 100 μL/well) and washed. The cells were then incubated with 100 μL of ImmunoCruz™ Western Blotting Luminol (Santa Cruz Biotechnology, Dallas, TX, USA) for 1 min in the dark, and the signals were measured using a microplate luminometer (VICTOR Light 1420-060, PerkinElmer®, Waltham, MA, USA). For non-specific binding, cells were treated, with the exception of primary antibody.

Data set [3] can be described thus: Chemical stability pH 7.4. It counts as physicochemical. Conditions: pH = 7.4, 4 h.
The next data set can be described thus: PAMPA. Particulars: for PAMPA: 10 μM, 4 h.
In another data set the test system is Caco-2 monolayer. Briefly: Caco-2 passive permeability. Particulars: 2 h; for Papp,BA: Caco-2, basal to apical.
Data set [4] is described as follows: Kinetic solubility (shake-flask). Particulars: pH 7.4, 4 h, 25 °C.
Data set [5] can be described thus: Metabolic stability in human liver microsomes. Particulars: for Clint HLM: 1 μM, phase I; for Metabolic stability in HLM (classification): compared with verapamil.
Data set [6] can be described thus: Metabolic stability in mouse liver microsomes. Particulars: for Metabolic stability in MLM (classification): compared with verapamil.
Another data set can be described thus: physchem. Particulars: 25 °C, pH 7.4, aqueous buffer, kinetic from dmso stock.
A short description of data set [7]: Caco-2 passive permeability. Conditions: human, Caco-2, with 5 μM elacridar and 20 μM cyclosporine A.

T2 sequence (Q63604 32-821): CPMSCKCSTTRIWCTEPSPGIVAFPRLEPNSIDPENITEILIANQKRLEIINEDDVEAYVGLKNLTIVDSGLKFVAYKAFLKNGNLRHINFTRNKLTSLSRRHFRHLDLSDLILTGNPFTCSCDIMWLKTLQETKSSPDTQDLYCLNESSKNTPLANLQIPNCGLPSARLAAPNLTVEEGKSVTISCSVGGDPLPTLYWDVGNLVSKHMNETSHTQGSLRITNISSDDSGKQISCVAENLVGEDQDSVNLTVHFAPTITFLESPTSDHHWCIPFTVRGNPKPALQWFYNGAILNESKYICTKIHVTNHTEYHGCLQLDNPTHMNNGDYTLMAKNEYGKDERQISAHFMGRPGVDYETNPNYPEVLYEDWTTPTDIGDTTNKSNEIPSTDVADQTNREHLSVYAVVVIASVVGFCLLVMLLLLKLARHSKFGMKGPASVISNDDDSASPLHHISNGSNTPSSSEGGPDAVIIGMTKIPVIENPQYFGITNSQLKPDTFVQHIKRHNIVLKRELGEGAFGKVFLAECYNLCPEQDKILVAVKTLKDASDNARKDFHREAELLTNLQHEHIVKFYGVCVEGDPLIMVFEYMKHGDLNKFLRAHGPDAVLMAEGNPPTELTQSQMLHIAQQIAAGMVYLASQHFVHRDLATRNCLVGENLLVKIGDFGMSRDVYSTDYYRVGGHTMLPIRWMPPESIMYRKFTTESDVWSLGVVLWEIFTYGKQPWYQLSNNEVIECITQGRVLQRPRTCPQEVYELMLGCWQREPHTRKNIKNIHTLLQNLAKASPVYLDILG
T1 sequence (Q16620 32-430): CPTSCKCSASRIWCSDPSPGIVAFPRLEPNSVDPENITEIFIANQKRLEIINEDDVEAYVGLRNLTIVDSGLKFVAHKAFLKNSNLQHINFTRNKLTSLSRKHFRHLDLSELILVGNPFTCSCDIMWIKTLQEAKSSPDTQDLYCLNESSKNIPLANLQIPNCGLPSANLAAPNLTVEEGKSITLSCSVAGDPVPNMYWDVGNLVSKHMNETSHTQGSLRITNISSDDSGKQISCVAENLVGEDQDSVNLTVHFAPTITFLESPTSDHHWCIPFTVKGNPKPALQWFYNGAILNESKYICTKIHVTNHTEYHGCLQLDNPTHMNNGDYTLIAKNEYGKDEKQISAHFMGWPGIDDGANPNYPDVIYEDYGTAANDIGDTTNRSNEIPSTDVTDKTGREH
Sequence of extracellular domain of the human TrkB receptor (exTrkB), residues 1-430 (human) (Q16620 32-430): as above

In data set [1], “Brain-derived neurotrophic factor (ligand)” came in with an EC50 of TrkB phosphorylation (Y706) by enzyme-linked fixed-cell immunoassay (ELFI) in SN56 T48 cells overexpressing TrkB; BDNF 0.01-10 nM, 15 min of 4 nM. In addition, in [2], the Kd was 93 nM.
Regarding `O=C(NCCO)c1cc(C(=O)NCCO)cc(C(=O)NCCO)c1` [LM22-A4], at exTrkB, the “Binding to the exTrkB receptor” value was “not observed”. Further, the “Orthosteric activity (induction of TrkB phosphorylation)” value (“Orthosteric activity” for short) on TrkB receptor is “did not observe any orthosteric activity”. For the same compound, in data set [3], the “Chemical Stability [% of Degradation]” value is “Stable”. In addition, in the data set “PAMPA”, the PAMPA was 0.01 10^−6·cm/s. Also, the “Papp,BA” value in the data set with Caco-2 monolayer is given as 0.12 10^−6·cm/s. Besides, the “Kinetic Solubility” value in data set [4] amounted to 397 µM. Moreover, in data set [5], the “Clint HLM” value is given as 3.7 μL·min^−1·mgprotein^−1 and the “Metabolic stability in HLM (classification)” value (“Metabolic stability in HLM” for short) is on record as “very good metabolic stability”. Besides, the “Metabolic stability in MLM (classification)” value (“Metabolic stability in MLM” for short) in data set [6] is “very good metabolic stability”.
Consider `CC(=O)NCCc1c[nH]c2ccc(O)cc12` [NAS, N-acetylserotonin], for which the “Binding to the exTrkB receptor” value at exTrkB is reported as “not observed”. Besides, the “Orthosteric activity” value on TrkB receptor is listed as “did not observe any orthosteric activity”. The “Chemical Stability [% of Degradation]” value in data set [3] is recorded as “Stable”. In addition, the PAMPA in “PAMPA” was <0.01 10^−6·cm/s. For the same compound, in the data set on Caco-2 monolayer (Caco-2, apical to basal), the “Papp,AB” value is recorded as 8.86 10^−6·cm/s. Moreover, in the data set on Caco-2 monolayer, the “Papp,BA” value is listed as 8.00 10^−6·cm/s. In addition, in [4], the “Kinetic Solubility” value came out at 404 µM. In addition, in data set [5], the “Clint HLM” value is reported as 0.3 μL·min^−1·mgprotein^−1 and the “Metabolic stability in HLM” value was “very good metabolic stability”. The “Clint MLM” value in data set [6] (1 μM, phase I) was 1.5 μL·min^−1·mgprotein^−1. The “Metabolic stability in MLM” value in [6] is on record as “very good metabolic stability”.
Take `O=c1cc(-c2cccc(O)c2)oc2c(O)c(O)ccc12` [7,8,3′-THF, 7,8,3′-trihydroxyflavone]: on exTrkB, the “Binding to the exTrkB receptor” value is given as “not observed”. Besides, the “Orthosteric activity” value at TrkB receptor is listed as “did not observe any orthosteric activity”. In addition, the “Chemical Stability [% of Degradation]” value in [3] is recorded as “Stable”. The same compound yielded a Papp at 4 h, 10 μM in the data set “PAMPA” (PAMPA, pH 7.4) of 1.1 ×10⁻⁶ cm/s. This compound also showed a solubility (kinetic) at 4 h in the data set “physchem” of 168 µM (≈ 45.4 µg/mL). In data set [7], this compound showed a Papp A→B at 2 h of 3 ×10⁻⁶ cm/s. Also, the Papp B→A at 2 h in [7] was found to be 11.1 ×10⁻⁶ cm/s. The “Metabolic stability in HLM” value in data set [5] is given as “moderate degradation rate”. The microsomal CLint at 1 μM in data set [5] (human, liver microsomes) was found to be 49.4 µL/min/mg; in data set [6] (mouse, liver microsomes) it was 26.6 µL/min/mg. Further, the “Metabolic stability in MLM” value in [6] was “moderate degradation rate”.
